Test system: Z. elegans cells
Assay: Full factorial hormone concentration experiment in liquid culture (live fraction, lignification, enlargement, elongation metrics)
Type: cell-based, Zinnia elegans
Details: for cumulative levels of lignification / live fraction at day 12: NAA at 0.5 mg ml^-1 together with BAP at 1 mg ml^-1, compared across 16 hormone combinations
Method: In an embodiment, Z. elegans cells may be isolated by the maceration of young Zinnia leaves (e.g., leaves 114). Leaves collected from approximately 14 day-old Zinnia plants may be rinsed under running tap water for 5 min. Leaves may be sterilized in a solution of 5 ml commercial bleach (Clorox), 95 ml of deionized water, and […] of Tween 20 (Sigma Aldrich) for 5 min. Subsequently, leaves may be rinsed thoroughly with sterile distilled water, sliced into strips, and ground between the surfaces of a small sieve and a spoon (e.g., a stainless steel spoon). The leaf matter may be intermittently rinsed with ZE-M media and the rinsate may be collected in a bowl positioned beneath the supporting sieve. After completion of grinding, the rinsate may be collected and filtered through a […] cell strainer (e.g., manufactured by Fisher Scientific) to remove large debris. This strainer is just but an example and should not be considered limiting. The filtered solution may be centrifuged at 100 g for 8 min and resulting supernatant removed if more concentrated cell solutions are desired. Liquid cultures may be maintained at concentrations between 250,000 and 500,000 cells ml^−1 at 3 ml per well in a 6-well plate wrapped in parafilm. Cultures may be maintained at 22° C. in the dark on an orbital shaker operating at 80 rpm.
Cells may be cultured in this manner for 48 hours in the low-hormone media before transference to specialized experimental media. An incubation period may improve differentiation rates when cells may be later exposed to elevated levels of auxin and cytokinin. Auxins may be plant hormones produced in the stem tip that promote cell elongation. Cytokinins may be a class of plant hormones that promote cell division, or cytokinesis. For dispersed gel cultures, cells may be extracted and maintained in low-hormone, liquid medium for a 48 hour acclimation period, as previously described, prior to transference to a gel medium 108 solidified by the addition of Gelzan C M (e.g., manufactured by Sigma Aldrich) at a final concentration of 3 g L^−1. Cultures may be sealed off with parafilm and maintained at 22° C. in the dark.
For liquid cultures, well-mixed […] aliquots of cell suspension may be transferred to 48 well plates for imaging. A […] volume of a fluorescein diacetate (FDA) stock solution (prepared at 2 mg ml^−1 acetone) may be added to the cell suspension and incubated in the dark for 20 min. After the incubation period, […] of calcofluor white (CW) may be added and the solution rested for an additional 5 min prior to imaging. A Zeiss LSM780 confocal microscope, for example, may be set to excitation/emission wavelengths of […]/440 nm (DAPI filter) for CW and 490 nm/526 nm for FDA for imaging. Gel cultures may be stained through a similar dual-step process after wetting the gel surface with a small amount of liquid medium. Relative staining volumes may be the same, but increased incubation times may be involved (e.g., incubation times were approximately 45 min for FDA incubation, 45 min for CW incubation). Image analysis may be performed using Image-i. The thresholding tool may be used to select the relevant cell areas. To ensure robustness of the analyzed data ranges, the images corresponding to the highest and lowest values for a single sample may be analyzed a total of 3 times, with the repeated results averaged to yield a final value for the given image. […]

Row | Compound | elongation metric (BAP elevated, across most NAA concentrations) | cumulative levels of lignification | live fraction at day 12
1 | c1ccc(CNc2ncnc3nc[nH]c23)cc1 [BAP, 6-benzylaminopurine] | reduced | highest | lowest
2 | O=C(O)Cc1cccc2ccccc12 [NAA, a-naphthaleneacetic acid] | – | highest | lowest
